Results reported in US9346815B2, “5-chloro-2-difluoromethoxyphenyl pyrazolopyrimidine compounds, compositions and methods of use thereof” (Genentech, Inc., priority 2014, dated 2016).
pEC50, pKi: −log10 of the molar value.

Assays:
[1] = molecular target: isolated recombinant JAK1 kinase domain (Homo sapiens (Human), UniProt P23458); assay: JAK1 enzyme assay (Caliper LabChip, peptide phosphorylation); assay type: biochemical; details: isolated recombinant JAK1 kinase domain, 25 μM ATP
[2] = system: JAK1-dependent STAT6 phosphorylation downstream of IL-13 stimulation in TF-1 human erythroleukemia cells; assay: JAK1 pathway assay in TF-1 cells (IL-13-pSTAT6, MSD); assay type: cell-based; details: Homo sapiens, TF-1, TF-1 cells, read-out: IL13-pSTAT6 EC50_TF-1
Method in brief: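 TF-1 cells are starved of GM-CSF overnight and run in serum-free medium, while BEAS-2B cells stay in complete growth medium. Inhibition of STAT6 phosphorylation is measured by MSD.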

[3] = molecular target: isolated recombinant JAK2 kinase domain (Homo sapiens (Human), UniProt O60674); assay: JAK2 enzyme assay (Caliper LabChip, peptide phosphorylation); assay type: biochemical; details: 25 μM ATP
isolated recombinant JAK2 kinase domain, sequence (O60674 849-1124): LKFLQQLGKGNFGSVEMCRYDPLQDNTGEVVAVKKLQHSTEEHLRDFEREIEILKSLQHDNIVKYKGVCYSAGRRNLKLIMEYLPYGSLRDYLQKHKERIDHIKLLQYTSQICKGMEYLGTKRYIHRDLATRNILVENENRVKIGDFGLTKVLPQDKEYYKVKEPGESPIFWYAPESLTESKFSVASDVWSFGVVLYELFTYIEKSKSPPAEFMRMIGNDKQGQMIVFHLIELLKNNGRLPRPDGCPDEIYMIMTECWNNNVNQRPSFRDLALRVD

isolated recombinant JAK1 kinase domain, sequence (P23458 875-1153): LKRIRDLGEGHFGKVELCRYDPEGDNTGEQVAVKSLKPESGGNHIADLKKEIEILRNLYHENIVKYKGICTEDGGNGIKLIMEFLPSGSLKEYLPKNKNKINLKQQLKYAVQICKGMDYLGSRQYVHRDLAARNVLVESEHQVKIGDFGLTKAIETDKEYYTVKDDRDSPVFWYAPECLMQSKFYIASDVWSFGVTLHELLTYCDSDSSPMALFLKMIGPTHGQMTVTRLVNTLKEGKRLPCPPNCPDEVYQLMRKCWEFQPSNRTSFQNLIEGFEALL

SMILES	pKi [1]	pEC50 [2]	pKi [3]
O=C(Nc1cn(CC(=O)N2C[C@H]3CN(CCCN4C(=O)Cc5ccccc54)C[C@H]3C2)nc1-c1cc(Cl)ccc1OC(F)F)c1cnn2cccnc12 [Example 54, N-[1-[2-[(3aR,6aS)-2-[3-(2-oxoindolin-1-yl)propyl]-1,3,3a,4,6,6a-hexahydropyrrolo[3,4-c]pyrrol-5-yl]-2-oxo-ethyl]-3-[5-chloro-2-(difluoromethoxy)phenyl]pyrazol-4-yl]pyrazolo[1,5-a]pyrimidine-3-carboxamide]	9.12	7.82	9.17
O=C(Nc1cn(CC(=O)N2C[C@H]3CN(CCCOC(=O)C4CCC4)C[C@H]3C2)nc1-c1cc(Cl)ccc1OC(F)F)c1cnn2cccnc12 [Example 55, 3-[(3aS,6aR)-5-[2-[3-[5-chloro-2-(difluoromethoxy)phenyl]-4-(pyrazolo[1,5-a]pyrimidine-3-carbonylamino)pyrazol-1-yl]acetyl]-1,3,3a,4,6,6a-hexahydropyrrolo[3,4-c]pyrrol-2-yl]propyl cyclobutanecarboxylate]	9.07	7.68	9.14
Nc1nn2cccnc2c1C(=O)Nc1cn(CC(=O)N2C[C@H]3CN(CC4CCC(F)(F)CC4)C[C@H]3C2)nc1-c1cc(Cl)ccc1OC(F)F [Example 58, N-[1-[2-[(3aS,6aR)-2-[(4,4-difluorocyclohexyl)methyl]-1,3,3a,4,6,6a-hexahydropyrrolo[3,4-c]pyrrol-5-yl]-2-oxo-ethyl]-3-[5-chloro-2-(difluoromethoxy)phenyl]pyrazol-4-yl]-2-amino-pyrazolo[1,5-a]pyrimidine-3-carboxamide]	9.22	7.59	9.48
O=C(Nc1cn(CC(=O)N2C[C@H]3CN(CCOCc4ccc(Cl)cc4)C[C@H]3C2)nc1-c1cc(Cl)ccc1OC(F)F)c1cnn2cccnc12 [Example 60, N-[1-[2-[(3aR,6aS)-2-[2-[(4-chlorophenyl)methoxy]ethyl]-1,3,3a,4,6,6a-hexahydropyrrolo[3,4-c]pyrrol-5-yl]-2-oxo-ethyl]-3-[5-chloro-2-(difluoromethoxy)phenyl]pyrazol-4-yl]pyrazolo[1,5-a]pyrimidine-3-carboxamide]	8.96	7.34	9.15
O=C(Nc1cn(CC(=O)N2CCC(N3CCCC3)CC2)nc1-c1cc(Cl)ccc1OC(F)F)c1cnn2cccnc12 [Example 69, N-[3-[5-chloro-2-(difluoromethoxy)phenyl]-1-[2-oxo-2-(4-pyrrolidin-1-yl-1-piperidyl)ethyl]pyrazol-4-yl]pyrazolo[1,5-a]pyrimidine-3-carboxamide]	9.07	7.69	8.61
CN(C)CC1(c2ccccc2)CCN(C(=O)Cn2cc(NC(=O)c3cnn4cccnc34)c(-c3cc(Cl)ccc3OC(F)F)n2)CC1 [Example 80, N-[3-[5-chloro-2-(difluoromethoxy)phenyl]-1-[2-[4-[(dimethylamino)methyl]-4-phenyl-1-piperidyl]-2-oxo-ethyl]pyrazol-4-yl]pyrazolo[1,5-a]pyrimidine-3-carboxamide]	9.37	8.31	9.06
O=C(Nc1cn(CC(=O)N2CCC(NC3CCC3)CC2)nc1-c1cc(Cl)ccc1OC(F)F)c1cnn2cccnc12 [Example 84, N-[3-[5-chloro-2-(difluoromethoxy)phenyl]-1-[2-[4-(cyclobutylamino)-1-piperidyl]-2-oxo-ethyl]pyrazol-4-yl]pyrazolo[1,5-a]pyrimidine-3-carboxamide]	9.04	7.61	8.83
CN(CCc1ccccn1)C1CCN(C(=O)Cn2cc(NC(=O)c3cnn4cccnc34)c(-c3cc(Cl)ccc3OC(F)F)n2)CC1 [Example 86, N-[3-[5-chloro-2-(difluoromethoxy)phenyl]-1-[2-[4-[methyl-[2-(2-pyridyl)ethyl]amino]-1-piperidyl]-2-oxo-ethyl]pyrazol-4-yl]pyrazolo[1,5-a]pyrimidine-3-carboxamide]	9.14	7.60	8.80
CN(C)C(=O)CCCN(C)C1CCN(C(=O)Cn2cc(NC(=O)c3cnn4cccnc34)c(-c3cc(Cl)ccc3OC(F)F)n2)CC1 [Example 88, N-[3-[5-chloro-2-(difluoromethoxy)phenyl]-1-[2-[4-[[4-(dimethylamino)-4-oxo-butyl]-methyl-amino]-1-piperidyl]-2-oxo-ethyl]pyrazol-4-yl]pyrazolo[1,5-a]pyrimidine-3-carboxamide]	8.76	6.52	8.72
O=C(Nc1cn(CC(=O)N2CCC(NCCc3ccccc3)CC2)nc1-c1cc(Cl)ccc1OC(F)F)c1cnn2cccnc12 [Example 89, N-[3-[5-chloro-2-(difluoromethoxy)phenyl]-1-[2-oxo-2-[4-(2-phenylethylamino)-1-piperidyl]ethyl]pyrazol-4-yl]pyrazolo[1,5-a]pyrimidine-3-carboxamide]	9.06	7.64	8.84

Next, values leading:

pKi [1]	pEC50 [2]	pKi [3]	SMILES
9.27	8.03	9.16	CN(C)C1CCN(C(=O)Cn2cc(NC(=O)c3cnn4cccnc34)c(-c3cc(Cl)ccc3OC(F)F)n2)C1 (stereo not drawn) [Example 65, N-[3-[5-chloro-2-(difluoromethoxy)phenyl]-1-[2-[3-(dimethylamino)pyrrolidin-1-yl]-2-oxo-ethyl]pyrazol-4-yl]pyrazolo[1,5-a]pyrimidine-3-carboxamide]
9.13	7.87	8.77	COCCN(C)C1CCN(C(=O)Cn2cc(NC(=O)c3cnn4cccnc34)c(-c3cc(Cl)ccc3OC(F)F)n2)CC1 [Example 68, N-[3-[5-chloro-2-(difluoromethoxy)phenyl]-1-[2-[4-[2-methoxyethyl(methyl)amino]-1-piperidyl]-2-oxo-ethyl]pyrazol-4-yl]pyrazolo[1,5-a]pyrimidine-3-carboxamide]
9.17	7.79	8.62	CN(C)CC1CCN(C(=O)Cn2cc(NC(=O)c3cnn4cccnc34)c(-c3cc(Cl)ccc3OC(F)F)n2)CC1 [Example 70, N-[3-[5-chloro-2-(difluoromethoxy)phenyl]-1-[2-[4-[(dimethylamino)methyl]-1-piperidyl]-2-oxo-ethyl]pyrazol-4-yl]pyrazolo[1,5-a]pyrimidine-3-carboxamide]
8.93	8.14	8.39	CN(C)C[C@@H]1CCCN(C(=O)Cn2cc(NC(=O)c3cnn4cccnc34)c(-c3cc(Cl)ccc3OC(F)F)n2)C1 [Example 72, N-[3-[5-chloro-2-(difluoromethoxy)phenyl]-1-[2-[(3S)-3-[(dimethylamino)methyl]-1-piperidyl]-2-oxo-ethyl]pyrazol-4-yl]pyrazolo[1,5-a]pyrimidine-3-carboxamide]
9.01	7.41	8.62	CN(C)CC1(O)CCN(C(=O)Cn2cc(NC(=O)c3cnn4cccnc34)c(-c3cc(Cl)ccc3OC(F)F)n2)CC1 [Example 74, N-[3-[5-chloro-2-(difluoromethoxy)phenyl]-1-[2-[4-[(dimethylamino)methyl]-4-hydroxy-1-piperidyl]-2-oxo-ethyl]pyrazol-4-yl]pyrazolo[1,5-a]pyrimidine-3-carboxamide]
9.18	7.10	9.21	CCNC1CCN(C(=O)Cn2cc(NC(=O)c3c(N)nn4cccnc34)c(-c3cc(Cl)ccc3OC(F)F)n2)CC1 [Example 75, 2-amino-N-[3-[5-chloro-2-(difluoromethoxy)phenyl]-1-[2-[4-(ethylamino)-1-piperidyl]-2-oxo-ethyl]pyrazol-4-yl]pyrazolo[1,5-a]pyrimidine-3-carboxamide]
9.22	6.68	9.29	Nc1nn2cccnc2c1C(=O)Nc1cn(CC(=O)N2CCC(N3CC[C@H](O)C3)CC2)nc1-c1cc(Cl)ccc1OC(F)F [Example 77, 2-amino-N-[3-[5-chloro-2-(difluoromethoxy)phenyl]-1-[2-[4-[(3S)-3-hydroxypyrrolidin-1-yl]-1-piperidyl]-2-oxo-ethyl]pyrazol-4-yl]pyrazolo[1,5-a]pyrimidine-3-carboxamide]
8.68	7.28	8.86	CN(C)C[C@H]1CCCN1C(=O)Cn1cc(NC(=O)c2c(N)nn3cccnc23)c(-c2cc(Cl)ccc2OC(F)F)n1 [Example 78, 2-amino-N-[3-[5-chloro-2-(difluoromethoxy)phenyl]-1-[2-[(2R)-2-[(dimethylamino)methyl]pyrrolidin-1-yl]-2-oxo-ethyl]pyrazol-4-yl]pyrazolo[1,5-a]pyrimidine-3-carboxamide]
8.34	6.80	8.68	CN(C)C[C@@H]1CCCN1C(=O)Cn1cc(NC(=O)c2c(N)nn3cccnc23)c(-c2cc(Cl)ccc2OC(F)F)n1 [Example 79, 2-amino-N-[3-[5-chloro-2-(difluoromethoxy)phenyl]-1-[2-[(2S)-2-[(dimethylamino)methyl]pyrrolidin-1-yl]-2-oxo-ethyl]pyrazol-4-yl]pyrazolo[1,5-a]pyrimidine-3-carboxamide]
8.93	8.06	9.28	CN(C)C[C@@H]1CCCN(C(=O)Cn2cc(NC(=O)c3c(N)nn4cccnc34)c(-c3cc(Cl)ccc3OC(F)F)n2)C1 [Example 82, 2-amino-N-[3-[5-chloro-2-(difluoromethoxy)phenyl]-1-[2-[(3S)-3-[(dimethylamino)methyl]-1-piperidyl]-2-oxo-ethyl]pyrazol-4-yl]pyrazolo[1,5-a]pyrimidine-3-carboxamide]
